Assay results taken from patent publication US20240043797A1, “METHOD FOR MASS PRODUCTION OF HIGHLY PURE, STEM CELL-DERIVED EXTRACELLULAR VESICLE BY USING PEPTIDE” (INDUSTRY-ACADEMIC COOPERATION FOUNDATION, CHOSUN UNIVERSITY, priority 2020, published 2024).
Ends that are not written are not given here. Peptide text beside a SMILES is read from it.

Legend:
Format in all cases: cell-based
[1] = Viability of umbilical cord MSCs against eMTD peptide, cell counting with trypan blue (TB assay)
Method: To measure the number of cells, umbilical cord-derived mesenchymal stem cells were seeded at a density of 2.5×10^4 cells/well into 12-well plates (30012, SPL) and incubated for 24 hours. The eMTD peptide in the sucrose buffer of Table 2 was applied at a final concentration of 0, 0.5, 1.0, 3.0, 5.0, 10.0, or 20.0 μM to the cells. After 15 minutes, the cells were counted using a trypan blue solution. Separately, umbilical cord-derived mesenchymal stem cells were seeded at a density of 2.5×10^4 cells/well into 12-well plates (30012, SPL) and incubated for 24 hours. The cells were treated with the eMTD peptide in the sucrose buffer of Table 2 for various periods of time (0, 5, 10, 15, 20, 25, and 30 minutes). After each period, the cells were counted using a trypan blue solution, and the results are depicted in FIG. 2 and summarized in Tables 5 and 6.

[2] = Viability of umbilical cord MSCs against eMTD peptide, absorbance analysis (ez-cytox, 450 nm; 'MTT assay')
Method: Mesenchymal stem cells derived from the umbilical cord (Wharton's jelly-derived MSCs, WJ-MSCs) were assayed for viability by treatment with the eMTD peptide at predetermined concentrations for predetermined periods of time. Tests were conducted with predetermined concentrations of the eMTD peptide. In this regard, umbilical cord-derived mesenchymal stem cells were seeded at a density of 2×10^4 cells/well into 24-well plates (30024, SPL). After 24 hours of incubation, the eMTD peptide in a sucrose buffer was applied at a final concentration of 0, 0.5, 1, 3, 5, 10, or 20 μM to the cells. The sucrose buffer contained glucose, sucrose, and 3-(N-morpholino)propanesulfonic acid [MOPS] at the respective concentrations shown in Table 2. After 15 minutes, the cells were incubated with ez-cytox (EZ-3000, DOGEN) for 30 to 60 minutes. Then, absorbance was read at 450 nm using a Bio-RAD x-Mark™ spectrophotometer (Bio-Rad Laboratories, USA). In addition, treatment with the eMTD peptide was conducted over various times. In this regard, umbilical cord-derived mesenchymal stem cells were seeded at a density of 2×10^4 cells/well into 24-well plates and incubated for 24 hours. Thereafter, the cells were treated with 1 μM of the eMTD peptide in the sucrose buffer for various periods of time (0, 5, 10, 15, 20, 25, or 30 minutes). After 15 minutes of treatment, the cells were incubated for 30 to 60 minutes with ez-cytox (EZ-3000, DOGEN). Absorbance was read at 450 nm using the Bio-RAD x-Mark™ spectrophotometer (Bio-Rad Laboratories, USA).

mesenchymal stem cells = assay: Inhibitor assay: EV production after pretreatment with BAPTA-AM or ALLM; conditions: TS-eEV production; cells pretreated with 50 μM BAPTA-AM 1 hour or 10 μM ALLM 18 hours
Method: The cells were pretreated with 50 μM BAPTA-AM (calcium-selective chelator) for 1 hour and with 10 μM ALLM (calpain inhibitor) for 18 hours. Comparison was made of EV production outputs among the method used, and the results are shown in FIGS. 14a and 14b and Table 15.

**Q.** With KLNFRQKLLNLISKLFCSGT [eMTD] as the compound, how does the viability at 15 minutes, 10 μM [1] read?
**A.** The viability at 15 minutes, 10 μM was 0%.

**Q.** What about the viability at 15 minutes, 0.5 μM ([1]; umbilical cord-derived mesenchymal stem cells, TB assay, eMTD 0.5 μM, 15 minutes) of the same compound?
**A.** Its viability at 15 minutes, 0.5 μM is 66.7%.

**Q.** And the viability at 15 minutes, 1 μM ([1]; umbilical cord-derived mesenchymal stem cells, TB assay, eMTD 1.0 μM, 15 minutes)?
**A.** The viability at 15 minutes, 1 μM was 66.3%.

**Q.** And the viability at 15 minutes, 3 μM ([1]; umbilical cord-derived mesenchymal stem cells, TB assay, eMTD 3.0 μM, 15 minutes)?
**A.** The viability at 15 minutes, 3 μM was 21.9%.

**Q.** What about the viability at 15 minutes, 5 μM ([1]; umbilical cord-derived mesenchymal stem cells, TB assay, eMTD 5.0 μM, 15 minutes) of the same compound?
**A.** Its viability at 15 minutes, 5 μM is 11.2%.

**Q.** What about the viability at 15 minutes, 20 μM ([1]; umbilical cord-derived mesenchymal stem cells, TB assay, eMTD 20.0 μM, 15 minutes) of the same compound?
**A.** The viability at 15 minutes, 20 μM was 2.1%.

**Q.** And the viability at 5 min ([1]; umbilical cord-derived mesenchymal stem cells, TB assay, time 5 min)?
**A.** The viability at 5 min was 40%.

**Q.** And the viability at 10 min ([1]; umbilical cord-derived mesenchymal stem cells, TB assay, time 10 min)?
**A.** Its viability at 10 min is 29.7%.

**Q.** What about the viability at 15 min ([1]; umbilical cord-derived mesenchymal stem cells, TB assay, time 15 min) of the same compound?
**A.** The viability at 15 min was 38.5%.

**Q.** What about the viability at 20 min ([1]; umbilical cord-derived mesenchymal stem cells, TB assay, time 20 min) of the same compound?
**A.** The viability at 20 min was 35.9%.

**Q.** And the viability at 25 min ([1]; umbilical cord-derived mesenchymal stem cells, TB assay, time 25 min)?
**A.** Its viability at 25 min is 14.6%.

**Q.** And the viability at 30 min ([1]; umbilical cord-derived mesenchymal stem cells, TB assay, time 30 min)?
**A.** The viability at 30 min was 15.6%.

**Q.** And the viability at 5 min, 1 μM ([2]; MTT assay, 1 μM eMTD, time 5 min, read-out: Cell viability (%))?
**A.** Its viability at 5 min, 1 μM is 52.7%.

**Q.** And the viability at 10 min, 1 μM ([2]; MTT assay, 1 μM eMTD, time 10 min, read-out: Cell viability (%))?
**A.** Its viability at 10 min, 1 μM is 41.8%.

**Q.** What about the viability at 15 min, 1 μM ([2]; MTT assay, 1 μM eMTD, time 15 min, read-out: Cell viability (%)) of the same compound?
**A.** The viability at 15 min, 1 μM was 37%.

**Q.** And the viability at 20 min, 1 μM ([2]; MTT assay, 1 μM eMTD, time 20 min, read-out: Cell viability (%))?
**A.** Its viability at 20 min, 1 μM is 29.4%.

**Q.** And the viability at 25 min, 1 μM ([2]; MTT assay, 1 μM eMTD, time 25 min, read-out: Cell viability (%))?
**A.** The viability at 25 min, 1 μM was 18.5%.

**Q.** And the viability at 30 min, 1 μM ([2]; MTT assay, 1 μM eMTD, time 30 min, read-out: Cell viability (%))?
**A.** The viability at 30 min, 1 μM was 17.8%.

**Q.** What about the viability at 15 minutes, 0.5 μM ([2]; MTT assay, eMTD 0.5 μM, 15 minutes, read-out: Cell viability (%)) of the same compound?
**A.** The viability at 15 minutes, 0.5 μM was 53.9%.

**Q.** What about the viability at 15 minutes, 1 μM ([2]; MTT assay, eMTD 1.0 μM, 15 minutes, read-out: Cell viability (%)) of the same compound?
**A.** Its viability at 15 minutes, 1 μM is 57.4%.

**Q.** And the viability at 15 minutes, 3 μM ([2]; MTT assay, eMTD 3.0 μM, 15 minutes, read-out: Cell viability (%))?
**A.** Its viability at 15 minutes, 3 μM is 13.6%.

**Q.** What about the viability at 15 minutes, 5 μM ([2]; MTT assay, eMTD 5.0 μM, 15 minutes, read-out: Cell viability (%)) of the same compound?
**A.** The viability at 15 minutes, 5 μM was 5.8%.

**Q.** What about the viability at 15 minutes, 10 μM ([2]; MTT assay, eMTD 10.0 μM, 15 minutes, read-out: Cell viability (%)) of the same compound?
**A.** Its viability at 15 minutes, 10 μM is 2.9%.

**Q.** And the viability at 15 minutes, 20 μM ([2]; MTT assay, eMTD 20.0 μM, 15 minutes, read-out: Cell viability (%))?
**A.** Its viability at 15 minutes, 20 μM is 4.1%.

**Q.** And the viability at 15 minutes, 1 μM ([2]; cell viability)?
**A.** Its viability at 15 minutes, 1 μM is about 50%.

**Q.** For `CSCC[C@@H](C=O)NC(=O)[C@H](CC(C)C)NC(=O)[C@H](CC(C)C)NC(C)=O` [ALLM] (Ac-Leu-Leu-Met-aldehyde), which “EV production (particle number/cell)” value (mesenchymal stem cells) is on record?
**A.** The value was 8.25 × 10^3 ± 9.96 × 10^2 particle number/cell.

**Q.** With `CC(=O)OCOC(=O)CN(CC(=O)OCOC(C)=O)c1ccccc1OCCOc1ccccc1N(CC(=O)OCOC(C)=O)CC(=O)OCOC(C)=O` [BAPTA-AM] as the compound, how does the “EV production (particle number/cell)” value (mesenchymal stem cells) read?
**A.** The value was 7.34 × 10^3 ± 9.08 × 10^2 particle number/cell.
